The test system of one assay is nitrobacteria. Description: nitrification inhibition activity in air-dry soil with urea. The conditions noted are these: for Nitrification inhibition rate dN / Mass fraction of nitrate nitrogen in the sample solution ω1: 10.00 g air-dry soil, 0.10 g urea, 48 h; for Mass fraction of nitrate nitrogen in the sample solution ω1: control ω2=948.6. The method, then: 2. A method for determining nitrification inhibition activity is as follows. […] 4-iodopyrazole coordination compound prepared in Embodiment 1 were respectively weighed, and placed into 500 ml conical flasks respectively; 10.00 g of air-dry soil, 0.10 g of urea and 100 mL of phosphate buffer were added to each flask; the conical flasks were simultaneously place into a thermostatic culture oscillator (180 rpm) for oscillation for 48 h, and then the resulting solutions were filtered to determine mass fraction ω1 of nitrate nitrogen (including nitrite nitrogen) in the sample and the control sample solution respectively. Calculation of nitrification inhibition rate: the nitrification inhibition rate of binuclear ligands with different addition amounts was calculated, and the results are shown in Table 2. [formula] • where dN is nitrification inhibition rate (%); • ω1 is mass fraction of nitrate nitrogen (including nitrite nitrogen) in the sample; and • ω2 is mass fraction of nitrate nitrogen (including nitrite nitrogen) in the control sample, and ω2=948.6.

The target in a further assay is urease (Canavalia ensiformis, UniProt P07374). To be noted: read-out: IC50 of urease inhibition; urease 10 KU/L, preincubated 1 h at 37° C., phosphate buffer pH 6.8 with 500 mM urea; modified Karber method.

Data on 1 compound can be found in patent publication US12435010B1, “4-iodopyrazole coordination compound and preparation method and use thereof” (Institute of Applied Ecology, Chinese Academy of Sciences, priority 2024, dated 2025).

The IC50 is the midpoint of a concentration-inhibition curve.

Chain of urease (P07374 whole entry, looked up): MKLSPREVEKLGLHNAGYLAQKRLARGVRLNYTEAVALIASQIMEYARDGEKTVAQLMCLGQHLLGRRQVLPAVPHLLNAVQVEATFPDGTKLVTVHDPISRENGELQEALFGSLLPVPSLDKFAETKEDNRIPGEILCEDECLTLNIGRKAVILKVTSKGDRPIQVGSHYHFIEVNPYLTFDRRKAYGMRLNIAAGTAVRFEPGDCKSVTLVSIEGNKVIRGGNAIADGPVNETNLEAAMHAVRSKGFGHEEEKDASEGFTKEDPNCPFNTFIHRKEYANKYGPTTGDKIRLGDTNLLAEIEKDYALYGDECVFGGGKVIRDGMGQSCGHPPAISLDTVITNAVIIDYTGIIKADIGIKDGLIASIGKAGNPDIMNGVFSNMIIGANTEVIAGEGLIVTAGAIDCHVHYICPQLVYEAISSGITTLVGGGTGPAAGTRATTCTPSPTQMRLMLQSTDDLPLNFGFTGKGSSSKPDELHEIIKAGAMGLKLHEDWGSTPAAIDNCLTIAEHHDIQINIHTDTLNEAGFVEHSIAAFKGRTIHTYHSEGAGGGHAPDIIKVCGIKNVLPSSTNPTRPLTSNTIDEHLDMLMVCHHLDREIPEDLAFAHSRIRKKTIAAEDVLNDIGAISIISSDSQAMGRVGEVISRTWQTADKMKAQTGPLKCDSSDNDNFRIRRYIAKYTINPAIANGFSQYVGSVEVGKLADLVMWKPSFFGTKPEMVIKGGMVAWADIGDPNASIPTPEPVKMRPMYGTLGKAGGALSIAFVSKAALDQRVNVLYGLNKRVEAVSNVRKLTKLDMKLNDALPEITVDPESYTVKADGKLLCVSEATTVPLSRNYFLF
Description for urease: An endpoint of the testing was determined by the phenol red indicator, and the testing was stopped when the solution changed from pale yellow to red.

Consider `Ic1cn[nH]c1.Ic1cn[nH]c1.[Cl][Cu][Cl]` [copper chloride-linked 4-iodopyrazole coordination compound], for which the nitrification inhibition rates entry in the assay with nitrobacteria (all addition amounts of Table 2) is on record as “greater than 9%”. The “Nitrification inhibition rate dN” value in the assay on nitrobacteria (mass of compound 0.03 g) is listed as 9.16%; in the assay with nitrobacteria (mass of compound 0.05 g), 9.79%; in the assay with nitrobacteria (mass of compound 0.07 g), 11.09%; with nitrobacteria (mass of compound 0.10 g), 15.57%. Also, the “Mass fraction of nitrate nitrogen in the sample solution ω1” value was 861.7 with nitrobacteria (mass of compound 0.03 g), 855.8 with nitrobacteria (mass of compound 0.05 g), 843.4 in the assay with nitrobacteria (mass of compound 0.07 g) and 800.9 with nitrobacteria (mass of compound 0.10 g). The IC50 on urease turned out to be 2580 ± 40 nM.
